Reference: patent US20110245284A1, “Alkoxy- and Alkylthio-Substituted Anilinopyrimidines” (Bayer CropScience AG, priority 2008, published 2011)

Experiments:
[1] = logP by LC-MS on reversed-phase columns (C 18), method [b], acidic range pH 2.7; format: physicochemical; conditions: for chromatographic logP: pH 2.7, log p
Method: (§1) The logP values were determined in accordance with EEC Directive 79/831 Annex V.A8 by HPLC (High Performance Liquid Chromatography) on reversed-phase columns (C 18), using the methods below:
[b] The LC-MS determination in the acidic range is carried out at pH 2.7 using the mobile phases 0.1% aqueous formic acid and acetonitrile (contains 0.1% formic acid), linear gradient from 10% acetonitrile to 95% acetonitrile.

Leptosphaeria nodorum = Leptosphaeria nodorum test (wheat) / protective; format: in vivo; conditions: Parastagonospora nodorum, active compound concentration 500 ppm, evaluation 7-9 days after inoculation, read-out: efficacy
Method: Thereafter, the plants are placed in a greenhouse at 90% relative atmospheric humidity and a temperature of 22° C.

[2] = logP by LC-MS on reversed-phase columns (C 18), method [c], neutral range pH 7.8; format: physicochemical
Method: as §1
[c] The LC-MS determination in the neutral range is carried out at pH 7.8 using the mobile phases 0.001 molar aqueous ammonium bicarbonate solution and acetonitrile, linear gradient from 10% acetonitrile to 95% acetonitrile.

[3] = method [b], LC-MS, acidic range pH 2.7

Compound: COCCOCCOc1ccc(Nc2ncc(Br)c(NC3CC3)n2)cc1 [Example 2]
- log p ([1]; pH 2.7): 1.69[b]

Compound: C=C(C)CSc1cccc(Nc2ncc(Br)c(NC3CC3)n2)c1 [Example 3]
- log p ([1]; pH 2.7): 4.25[b]

Compound: COCC(C)Oc1ccc(Nc2ncc(Br)c(NC3CC3)n2)cc1Cl (centres unmarked) [Example 4]
- log p ([1]; pH 2.7): 2.75[b]

Compound: COC(c1cccc(Nc2ncc(Br)c(NC3CCC3)n2)c1)C(F)(F)F (centres unmarked) [Example 10]
- log p ([1]; pH 2.7): 3[b]

Compound: CCSC(C)c1cccc(Nc2ncc(Cl)c(NC3CCC3)n2)c1 (centres unmarked) [Example 11]
- log p ([1]; pH 2.7): 3.25[b]

Compound: CSC(C)c1cccc(Nc2ncc(C(F)(F)F)c(NC3CCCC3)n2)c1 (centres unmarked) [Example 16]
- pest or weed control at 500 ppm (Leptosphaeria nodorum): ≥ 70%
- chromatographic logP [1]: 4.48

Compound: COC(C)c1cccc(Nc2ncc(C(F)(F)F)c(NC3CCCC3)n2)c1 (centres unmarked) [Example 17]
- pest or weed control at 500 ppm (Leptosphaeria nodorum): ≥ 70%
- chromatographic logP [1]: 4.13

Compound: COC(c1cccc(Nc2ncc(Cl)c(NC3CCC3)n2)c1)C(F)(F)F (centres unmarked) [Example 21]
- log p ([1]; pH 2.7): 2.99[b]

Compound: COC(c1cccc(Nc2ncc(Cl)c(NCC(F)F)n2)c1)C(F)(F)F (centres unmarked) [Example 23]
- log p ([1]; pH 2.7): 2.93[b]

Compound: CCSC(C)c1cccc(Nc2ncc(C(F)(F)F)c(NC3CCC3)n2)c1 (centres unmarked) [Example 36]
- log p ([1]; pH 2.7): 4.75[b]

Compound: CCSC(C)c1cccc(Nc2ncc(C(F)(F)F)c(NC3CCCC3)n2)c1 (centres unmarked) [Example 37]
- pest or weed control at 500 ppm (Leptosphaeria nodorum): ≥ 70%
- chromatographic logP [1]: 5.2

Compound: C=C(C)CSc1cccc(Nc2ncc(Cl)c(NC3CC3)n2)c1 [Example 38]
- log p ([1]; pH 2.7): 3.59[b]

Compound: CCS(=O)(=O)C(C)c1cccc(Nc2ncc(C(F)(F)F)c(NC3CCCC3)n2)c1 (centres unmarked) [Example 39]
- log p ([1]; pH 2.7): 3.27[b]

Compound: CCS(=O)(=O)C(C)c1cccc(Nc2ncc(C(F)(F)F)c(NCC3CC3)n2)c1 (centres unmarked) [Example 41]
- log p ([1]; pH 2.7): 2.65[b]

Compound: CC[S+]([O-])C(C)c1cccc(Nc2ncc(C(F)(F)F)c(NC3CCCC3)n2)c1 (centres unmarked) [Example 42]
- log p ([1]; pH 2.7): 2.87[b]

Compound: CC[S+]([O-])C(C)c1cccc(Nc2ncc(C(F)(F)F)c(NCC3CC3)n2)c1 (centres unmarked) [Example 44]
- log p ([1]; pH 2.7): 2.3[b]

Compound: CCS(=O)(=O)C(C)c1cccc(Nc2ncc(C(F)(F)F)c(NC3CC3)n2)c1 (centres unmarked) [Example 46]
- log p ([1]; pH 2.7): 2.49[b]

Compound: COCc1cc(COC)cc(Nc2ncc(Cl)c(NC3CCC3)n2)c1 [Example 47]
- log p ([1]; pH 2.7): 2.06[b]

Compound: CCOCCOc1cc(Nc2ncc(Cl)c(NC3CC3)n2)ccc1C [Example 48]
- log p [1, 3]: 2.23[b]

Compound: O=S(=O)(CCCl)c1cc(Nc2ncc(Cl)c(NC3CC3)n2)ccc1Cl [Example 49]
- log p [1, 3]: 2.67[b]

Compound: Clc1cnc(Nc2cccc(COc3ccccc3)c2)nc1NC1CC1 [Example 50]
- pest or weed control at 500 ppm (Leptosphaeria nodorum): ≥ 70%
- chromatographic logP [1]: 2.92

Compound: CCS(=O)(=O)c1ccc(Nc2ncc(Cl)c(NC3CC3)n2)cc1 [Example 54]
- chromatographic logP [1]: 2.04

Compound: CCS(=O)(=O)c1ccc(Nc2ncc(C(F)(F)F)c(NC3CC3)n2)cc1 [Example 55]
- log p ([1]; pH 2.7): 2.66[b]

Compound: COCCOc1ccc(Nc2ncc(Cl)c(NC3CC3)n2)cc1Cl [Example 68]
- pest or weed control at 500 ppm (Leptosphaeria nodorum): ≥ 70%
- chromatographic logP [1]: 2.12

Compound: COCc1cccc(Nc2ncc(Cl)c(N(C)CCCN3CCCCCC3=O)n2)c1 [Example 69]
- log p ([1]; pH 2.7): 1.91[b]

Compound: COCC(C)Oc1ccc(Nc2ncc(Cl)c(NC3CC3)n2)cc1C(F)(F)F (centres unmarked) [Example 72]
- log p ([1]; pH 2.7): 2.91[b]

Compound: COCC(C)Oc1ccc(Nc2ncc(C(F)(F)F)c(NC3CC3)n2)cc1Cl (centres unmarked) [Example 78]
- log p ([1]; pH 2.7): 3.7[b]
- log p ([2]; pH 7.8): 3.99[c];

Compound: COCC(C)Oc1ccc(Nc2ncc(C(F)(F)F)c(NC3CC3)n2)cc1C(F)(F)F (centres unmarked) [Example 80]
- log p ([1]; pH 2.7): 4.05[b]
- log p ([2]; pH 7.8): 4.28[c];

Compound: COCCOc1ccc(Nc2ncc(C(F)(F)F)c(NC3CC3)n2)cc1F [Example 81]
- log p ([1]; pH 2.7): 2.89[b]
- log p ([2]; pH 7.8): 3.27[c];

Compound: COCc1cccc(Nc2ncc(Br)c(NC3CC3C)n2)c1 (centres unmarked) [Example 84]
- log p [1, 3]: 2.15[b]
- log p ([2]; method [c], LC-MS, neutral range pH 7.8): 3.59[c];

Compound: Fc1cccc(Nc2ncc(Cl)c(NC3CC3)n2)c1 [Example 86]
- log p ([1]; pH 2.7): 1.87[b]

Compound: COCc1cccc(Nc2ncc(Cl)c(N3CCCC3)n2)c1 [Example 87]
- log p ([2]; pH 7.8): 3.83[c];

Compound: COCC(C)Oc1ccc(Nc2ncc(C(F)(F)F)c(NC3CC3)n2)cc1 (centres unmarked) [Example 88]
- log p ([1]; pH 2.7): 2.71[b]
- log p ([2]; pH 7.8): 3.45[c];

Compound: COCc1cccc(Nc2ncc(Cl)c(N3CCCCC3)n2)c1 [Example 89]
- log p ([1]; pH 2.7): 3.14[b]
- log p ([2]; pH 7.8): 4.2[c];

Compound: CCCN(c1nc(Nc2cccc(COC)c2)ncc1Cl)C1CC1 [Example 136]
- log p ([1]; pH 2.7): 3.68[b]

Compound: COCc1cccc(Nc2ncc(Cl)c(N3CCCCCC3)n2)c1 [Example 139]
- log p ([1]; pH 2.7): 2.88[b]

Compound: CCN(c1nc(Nc2cccc(COC)c2)ncc1Cl)C(C)C [Example 140]
- chromatographic logP [1]: 3

Compound: CCCN(C)c1nc(Nc2cccc(COC)c2)ncc1Cl [Example 141]
- chromatographic logP [1]: 2.55

Compound: COCc1cccc(Nc2ncc(Cl)c(NCC(C)(C)C)n2)c1 [Example 142]
- pest or weed control at 500 ppm (Leptosphaeria nodorum): ≥ 70%
- chromatographic logP [1]: 2.48

Compound: CCCC(C)Nc1nc(Nc2cccc(COC)c2)ncc1Cl (centres unmarked) [Example 143]
- chromatographic logP [1]: 2.41

Compound: CCC(CC)Nc1nc(Nc2cccc(COC)c2)ncc1Cl [Example 144]
- pest or weed control at 500 ppm (Leptosphaeria nodorum): ≥ 70%
- chromatographic logP [1]: 2.3

Compound: CCC(C)CNc1nc(Nc2cccc(COC)c2)ncc1Cl (centres unmarked) [Example 145]
- chromatographic logP [1]: 2.37

Compound: COCc1cccc(Nc2ncc(Cl)c(NCCC(C)C)n2)c1 [Example 146]
- chromatographic logP [1]: 2.37

Compound: CCCCCNc1nc(Nc2cccc(COC)c2)ncc1Cl [Example 147]
- chromatographic logP [1]: 2.41

Compound: CCS(=O)(=O)C(C)c1cccc(Nc2ncc(Br)c(NC3CCC3)n2)c1 (centres unmarked) [Example 153]
- log p ([1]; pH 2.7): 2.03[b]

Compound: COCCOCCOc1ccc(Nc2ncc(C(F)(F)F)c(NC3CC3)n2)cc1Cl [Example 156]
- log p ([1]; pH 2.7): 3.2[b]

Compound: COCCOc1ccc(Nc2ncc(C(F)(F)F)c(NC3CC3)n2)cc1C [Example 157]
- chromatographic logP [1]: 2.14

Compound: CCCS(=O)(=O)c1cccc(Nc2ncc(Br)c(NC3CCC3)n2)c1 [Example 159]
- pest or weed control at 500 ppm (Leptosphaeria nodorum): ≥ 70%
- chromatographic logP [1]: 2.81

Compound: CCCC(C)S(=O)(=O)C(C)c1cccc(Nc2ncc(C(F)(F)F)c(NC3CC3)n2)c1 (centres unmarked) [Example 168]
- log p ([1]; pH 2.7): 3.47[b]

Compound: COCCOCCOc1ccc(Nc2ncc(Cl)c(NC3CC3)n2)cc1Cl [Example 173]
- log p ([1]; pH 2.7): 2.12[b]

Compound: COCCOc1ccc(Nc2ncc(Cl)c(NC3CC3)n2)cc1C [Example 174]
- chromatographic logP [1]: 1.43

Compound: CCOCCOc1ccc(Nc2ncc(C(F)(F)F)c(NC3CC3)n2)cc1Cl [Example 184]
- chromatographic logP [1]: 3.72

Compound: CCOCCOc1ccc(Nc2ncc(C(F)(F)F)c(NC3CC3)n2)cc1C(F)(F)F [Example 186]
- chromatographic logP [1]: 4.09

Compound: CCSC(C)c1cccc(Nc2ncc(Cl)c(NC3CC3CC)n2)c1 (centres unmarked) [Example 196]
- log p [1, 3]: 3.99[b]

Compound: CCC1CC1Nc1nc(Nc2cccc(C(C)OC)c2)ncc1Cl (centres unmarked) [Example 197]
- log p [1, 3]: 2.76[b]

Compound: COCc1cccc(Nc2ncc(Br)c(NC3CC(C)C3)n2)c1 (centres unmarked) [Example 200]
- log p [1, 3]: 2.55[b]

Compound: COCc1cccc(Nc2ncc(Cl)c(NC3CC3C(F)(F)F)n2)c1 (centres unmarked) [Example 208]
- log p ([1]; pH 2.7): 2.64[b]

Compound: COCCOc1cccc(Nc2ncc(Cl)c(NC3CC3C(F)(F)F)n2)c1 (centres unmarked) [Example 210]
- log p ([1]; pH 2.7): 2.66[b]

Compound: COC(C)c1cccc(Nc2ncc(Br)c(NC3CC(C)C3)n2)c1 (centres unmarked) [Example 212]
- log p [1, 3]: 2.84[b]

Compound: COCC(C)Oc1ccc(Nc2ncc(Br)c(NC3CC(C)C3)n2)cc1 (centres unmarked) [Example 213]
- log p ([1]; pH 2.7): 2.27[b]

Compound: CCSC(C)c1cccc(Nc2ncc(Br)c(NC3CC(C)C3)n2)c1 (centres unmarked) [Example 214]
- log p ([1]; pH 2.7): 3.85[b]

Compound: COCCOC(c1cccc(Nc2ncc(C(F)(F)F)c(NCC3CC3)n2)c1)C(F)(F)F (centres unmarked) [Example 220]
- log p ([2]; pH 7.8): 4.2[c]

Compound: COCC(C)Oc1ccc(Nc2ncc(Cl)c(NC3CC3C(F)(F)F)n2)cc1 (centres unmarked) [Example 221]
- log p ([1]; pH 2.7): 2.48[b]

Compound: CS(=O)(=O)Cc1cccc(Nc2ncc(Cl)c(NC3CC3C(F)(F)F)n2)c1 (centres unmarked) [Example 222]
- log p ([1]; pH 2.7): 1.96[b]

Compound: CCSC(C)c1cccc(Nc2ncc(Cl)c(NC3CC3C(F)(F)F)n2)c1 (centres unmarked) [Example 223]
- log p ([1]; pH 2.7): 3.93[b]

Compound: FC(F)(F)COCc1cccc(Nc2ncc(Cl)c(NC3CC3)n2)c1 [Example 224]
- log p ([1]; pH 2.7): 2.56[b]

Compound: FC(F)(F)c1cnc(Nc2cccc(COc3ccc4c(c3)OCO4)c2)nc1NC1CC1 [Example 227]
- log p ([1]; pH 2.7): 3.9[b]

Compound: Clc1cnc(Nc2cccc(COc3ccc4c(c3)OCO4)c2)nc1NC1CC1 [Example 230]
- log p ([2]; pH 7.8): 3.87[c]

Compound: FC(F)C(F)(F)COCc1cccc(Nc2ncc(C(F)(F)F)c(NC3CC3)n2)c1 [Example 231]
- log p ([1]; pH 2.7): 3.7[b]

Compound: FC(F)C(F)(F)COCc1cccc(Nc2ncc(Cl)c(NC3CC3)n2)c1 [Example 232]
- log p ([1]; pH 2.7): 2.69[b]

Compound: CCOC(CSc1cccc(Nc2ncc(C(F)(F)F)c(NC3CC3)n2)c1)OCC [Example 236]
- log p ([2]; pH 7.8): 4.55[c]

Compound: COC(COCc1cccc(Nc2ncc(C(F)(F)F)c(NC3CC3)n2)c1)OC [Example 237]
- log p ([2]; pH 7.8): 3.37[c]

Compound: CCOC(COCc1cccc(Nc2ncc(C(F)(F)F)c(NC3CC3)n2)c1)OCC [Example 238]
- chromatographic logP ([2]; pH 7.8): 4.09

Compound: FC(F)(F)OCCOc1cccc(Nc2ncc(Cl)c(NC3CC3)n2)c1 [Example 241]
- chromatographic logP [1]: 2.72

Compound: CCOCCOCc1cccc(Nc2ncc(Cl)c(NC3CC3)n2)c1 [Example 248]
- chromatographic logP [1]: 2.03

Compound: CCOCCOCc1cccc(Nc2ncc(C(F)(F)F)c(NC3CC3)n2)c1 [Example 250]
- chromatographic logP [1]: 3.17

Compound: CCOCCOCc1cccc(Nc2ncc(Cl)c(NC3CC3)n2)c1 [Example 252]
- log p ([1]; pH 2.7): 2.51[b]

Compound: CCOCCOCc1cccc(Nc2ncc(C(F)(F)F)c(NC3CC3)n2)c1 [Example 253]
- log p ([1]; pH 2.7): 2.73[b]
